Measurements from patent publication US11207421B2, “Nanostructures comprising cobalt porphyrin-phospholipid conjugates and polyhistidine-tags” (The Research Foundation for The State University of New York, priority 2015, dated 2021).
Where a SMILES comes first, the peptide text is derived from it. Where no end group is shown, it is not given here. The star is where a group is joined. 5FAM = O=C1OC2(c3ccc(O)cc3Oc3cc(O)ccc32)c2ccc(C(=O)*)cc21; Palmitoyl = CCCCCCCCCCCCCCCC(=O)*

Experiments:
CoPoP liposomes = assay: Effect of His-tag length on peptide binding to CoPoP liposomes; settings: FAM-labeled peptides with varying His-tag length
Protocol: 1 μg of fluorescent reporter protein was incubated with 20 μg of liposomes in 200 μL PBS in a 96 well plate. Fluorescence in the FRET channel (ex: 430 nm, em: 525 nm) was measured periodically with a fluorescence microplate reader (Tecan Infinite II). Data were normalized to the FRET signal in the protein without addition of liposomes. EMSA experiments were performed with 2.5 μg protein incubated with 50 μg liposomes followed by electrophoresis in a 0.75% agarose gel with 50 V applied for 90 minutes and imaging with an IVIS Lumina II system with the indicated excitation and emission filters. For serum stability test, […] in 40u l PBS. After […], 40u l FBS was added and incubated for another 8 h (hours). For imidazole displacement experiments, 1 μg of reporter protein was bound to 20 μg liposomes in PBS. Imidazole was then titrated and binding was assessed with fluorescence. For serum stability, 1 μg of reporter protein was bound to 20 μg liposomes in 100 μL PBS and then an equal volume of fetal bovine serum (VWR #82013-602) was added and binding was monitored with fluorescence. Peptide binding was assessed with RGD-His FAM fluorophore quenching following incubation of 500 ng peptide with 20 μg liposomes.
The effect of His-tag length on peptide binding to CoPoP liposome was examined. A series of N-terminus FAM-labeled peptides was synthesized with varying lengths of His-tag attached to the C-terminus.

[1] = assay type: physicochemical; settings: not told
Protocol: PoP-liposomes were formulated at a 1 mg scale. After dissolving lipids in chloroform in a test tube, the solvent was evaporated and the film was further dried under vacuum overnight. Lipids were rehydrated with 1 mL of phosphate buffered saline (PBS), sonicated, subjected to 10 freeze-thaw cycles and then extruded through 100 nm polycarbonate membranes (VWR #28157-790) with a handheld extruder (Avanti #610000). For protein and peptide binding analysis, liposomes were formed with 10 mol % PoP along with 85 mol % DOPC (Avanti #850375P), and 5 mol % PEG-lipid (Avanti #880120P). […] Liposomes incorporating free Co-porphyrin included 10 molar % Co-pyropheophorbide with 85 mol % DOPC and 5 mol % PEG-lipid. Co-NTA-liposome was prepared using liposomes containing 10 mol % dioleoyl-gycero-NTA (Avanti #790528P). Liposomes were incubated with 20 mg/mL cobalt (II) chloride for 2 hours and then dialized in PBS. Sulforhodamine B loading liposomes contained 10 mol % PoP, 35 mol % cholesterol (Avanti #700000P), 55 mol % DOPC and PEG-lipid as indicated. […] For bilayer integrity and quantitative cell binding studies, 50 mM dye was used, whereas microscopy studies used 10 mM dye.
Given the binding efficacy of the His-tagged peptide to liposomes, bilayer integrity was assessed to determine whether peptide binding induces membrane destabilization. […]

U87 cells [2] = assay: Uptake of coated gold nanospheres (confocal reflectance/backscatter microscopy); assay type: cell-based; settings: free RGD
Protocol: For gold coating, 60 nm citrate-stabilized gold nanospheres (Ted Pella #15709-20) were used to hydrate a 1 mg lipid film composed of 45 mol % distearoyl phosphocholine (Avanti #850365P), 45 mol % distearoyl phosphoglycerol (Avanti #840465X) and 10 mol % PoP. Following brief vortexing and sonication, the samples were repeatedly centrifuged at 1500 relative centrifugal force (rcf) for 15 min. The supernatant was discarded and the pellet was resuspended and re-centrifuged 2 more times. PoP gold was resuspended in water for further analysis.
(§1) For confocal imaging, 10^4 cells were seeded overnight in a Nunc chamber slide (Nunc #155411) in DMEM with 10% fetal bovine serum (FBS). 20 μg of liposomes were added to the serum containing media and incubated for 2 h. Media was removed and the cells were washed with PBS 3 times. Fresh media was added and cells were imaged with microscopy using a Zeiss LSM 710 confocal fluorescence microscope. Gold imaging was carried out in the same way but 633 nm light was used for both excitation and emission for back scatter imaging. After peptide binding, gold was centrifuged to remove any unbound RGD peptide.
Liposomes represent only a subset of all the types of nanomaterials used in biomedical applications. CoPoP was assessed as a generalized surface coating with selective adhesion for His-tags. […]

U87 glioblastoma cells = assay: Targeted uptake of sulforhodamine B-loaded liposomes; assay type: cell-based; settings: excess free RGD peptide
Protocol: U-87 and MCF-7 cell lines were obtained from ATCC and cultured according to vendor protocol. 2×10^4 cells were seeded overnight in 96-well-plate wells. 500 ng RGD-His peptide was bound with 20 μg of sulforhodamine B loaded liposomes and liposomes were incubated with cells for 2 h. Media was removed, cells were washed with PBS 3 times and then cells and liposomes were lysed with a 1% Triton X-100 solution. Liposomal uptake was assessed by measuring the fluorescence of sulforhodamine B.
as §1, with “After peptide binding, gold was centrifuged to remove any unbound RGD peptide.” left out
Next, RGD-decorated liposomes were assessed whether they could bind to their molecular targets with the established cell-line pair of U87 glioblastoma cells (RGD-binding) and MCF7 breast cancer cells (RGD non-binding). […] Liposomal uptake was assessed by examining the fluorescence in the cells following washing and lysis (to remove any effects of cargo self-quenching). […]

U87 cells [3] = assay: Uptake of CoPoP liposomes bound to his-tagged cell penetrating peptides; assay type: cell-based; settings: 1 hour incubation; [2:5:30:63] [PoP:CoP:CHOL:DMPC]
From the text: In this example, CoPoP liposomes were targeted to cells via his-tagged cell penetrating peptides. The following his-tagged cell penetrating peptides were obtained: […] (SEQ ID NO:13) (TAT peptide); […] (SEQ ID NO:14) (R8 peptide); […] (SEQ ID NO:15) (PEN peptide).

[4] = tested on: murine RAW 264.7 macrophage cells; assay: DY-490-OspA uptake by macrophage cells; assay type: cell-based; settings: 2 hr incubation
Protocol: FIG. 24. Assessing epitope availability and stability of antigen-functionalized nanoliposomes. (A) Stability of nanoliposome-antigen particles in 20% (v/v) human serum based on fluorescence quenching assay. (B) Immunoprecipitation of OspA-bound liposomes by OspA-specific monoclonal antibody LA-2. (C) DY-490-OspA uptake by murine RAW 264.7 macrophage cells following 2 hr incubation with indicated samples. Cytochalasin B was supplemented to medium 1 hr prior to incubation. Error bars represent standard deviations for n=3 experiments.
Practical utility of liposomes as antigen delivery vesicles is attributed from its enhanced uptake by antigen presenting cells. […] The macrophage selective uptake of PoP/PHAD liposomes in the mixed form further implicates that physical association of antigen to liposomes may be necessary for liposomal adjuvanticity. Co-delivery of surface-exposed antigen and immunostimulant to immune cells is an important facet of the CoPoP/PHAD liposome. Cellular uptake mechanism via phagocytosis is supported by the diminished uptake for both antigen and liposome in the presence of cytochalasin B.

his-tagged OspA = molecular target: T1, his-tagged OspA (Borreliella burgdorferi, UniProt P0CL66); assay: OspA binding to CoPoP/PHAD liposomes (native PAGE, microBCA); parameters: species or system Borrelia burgdorferi; settings: microBCA assay of supernatant after high speed centrifugation
T1 construct: made in house; host or cells: E. coli
T1 sequence (P0CL66 17-273): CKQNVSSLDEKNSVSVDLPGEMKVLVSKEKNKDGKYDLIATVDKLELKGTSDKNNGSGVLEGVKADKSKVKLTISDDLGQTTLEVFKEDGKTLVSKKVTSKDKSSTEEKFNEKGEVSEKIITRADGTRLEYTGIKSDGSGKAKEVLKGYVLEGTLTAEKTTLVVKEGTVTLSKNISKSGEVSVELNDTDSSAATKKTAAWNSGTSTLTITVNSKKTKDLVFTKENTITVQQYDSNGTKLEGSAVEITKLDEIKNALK
Protocol: FIG. 23. […] (D) Hydrodynamic diameter and polydispersity index of liposomes measured using dynamic light scattering. […] Acquisitions were made 3 hr after incubation of liposomes with protein. Error bars represent standard deviations for n=3 measurements.
Spontaneous formation of the proteoliposomes occurs via insertion of the histidine tag into the hydrophobic bilayer and subsequent coordination of the imidazole moiety to the metal center. Binding conditions for were evaluated using native electrophoresis, which allows physical separation of liposome-bound and free proteins due to the limiting pore size of the acrylamide gel. Observed optimum binding mass ratio of 4:1 of PHAD:OspA (FIG. 23A) is consistent with previous studies using the malaria antigen, Pfs25. […] It can be deduced that the initial phase of binding occurred at a fast rate based from the relative band intensities for time points, 0 and 15 min. At the particleization conditions, specific binding is estimated to be about 80% based from microBCA assay of the supernatant obtained from high speed centrifugation (FIG. 23C).

For “5-FAM-KKGGGG (SEQ ID NO: 5) (5FAM-KKGGGG) [0-His]”, the “binding t1/2” value (CoPoP liposomes) was “no peptide binding was observed”.
In the case of “5-FAM-KKGGGGHH (SEQ ID NO: 6) (5FAM-KKGGGGHH) [2-His]”, the “binding t1/2” value (CoPoP liposomes) is reported as about 10 h.
In the case of “5-FAM-KKGGGGHHHHHH (SEQ ID NO: 8) (5FAM-KKGGGGHHHHHH) [6-His]”, the “binding t1/2” value (CoPoP liposomes) is reported as “less than one hour”.
With “5-FAM-KKGGGGHHHHHHHHHH (SEQ ID NO: 10) (5FAM-KKGGGGHHHHHHHHHH) [10-His]” the “binding t1/2” value (CoPoP liposomes) was 0.333 h.
For `CCCCCCCCCCCCCCCC(=O)NCCCC[C@H](NC(=O)CNC(=O)[C@H](CCCCN)NC(=O)[C@H](C)NC(=O)CNC(=O)[C@H](C)NC(=O)CNC(=O)[C@H](CCCCN)NC(=O)[C@@H]1CCCN1C(=O)[C@H](CO)NC(=O)[C@H](CC(=O)O)NC(=O)CNC(=O)[C@H](CCCNC(=N)N)NC(=O)CNC(=O)c1ccc2c(c1)C(=O)OC21c2ccc(O)cc2Oc2cc(O)ccc21)C(=O)O` [RGD-palm] (5FAM-GRGDSPKGAGAKGK(Palmitoyl)-OH; C-terminus assumed), the “membrane permeabilization by lipopeptide” value [1] was “permeabilization of cargo-loaded liposomes”.
In the case of GRGDSPK (SEQ ID NO: 2) [Free RGD], the “inhibition of gold nanoparticle binding” value (U87 cells [2]) is reported as “inhibited the binding” and the “inhibition of targeted liposome binding” value (U87 glioblastoma cells) is reported as “Binding could be inhibited”.
With “HHHHHHHGRKKRRQRRRPPQ (SEQ ID NO:13) (cell penetrating peptide) [TAT peptide]” the “binding and uptake of peptide-bound CoPoP liposomes” value (U87 cells [3]) was “could bind and get uptaken”.
In the case of “HHHHHHHRQIKIWFQNRRMKWKK (SEQ ID NO:15) (cell penetrating peptide) [PEN peptide]”, the “binding and uptake of peptide-bound CoPoP liposomes” value (U87 cells [3]) is reported as “could bind and get uptaken”.
With “HHHHHHHRRRRRRRR (SEQ ID NO:14) (cell penetrating peptide) [R8 peptide]” the “binding and uptake of peptide-bound CoPoP liposomes” value (U87 cells [3]) was “could bind and get uptaken”.
For “OspA: his-tagged OspA based on the B31 strain protein sequence without the lipid tail, free non-adjuvanted”, the antigen uptake [4] was “Minimal uptake”.
In the case of “lysozyme: a non-histidine tagged protein”, the specific binding (his-tagged OspA) is reported as “failed to bind”.
